According to US20210128667A1, “IMMUNOPROTEASOME INHIBITORS AND IMMUNOSUPPRESSIVE AGENT IN THE TREATMENT OF AUTOIMMUNE DISORDERS” (KEZAR LIFE SCIENCES, priority 2017, published 2021):

Key:
immunoproteasome [1] = molecular target: immunoproteasome (Mus musculus, UniProt O35955+P28063+P28076); conditions: upon administration to mice; cited from earlier work
immune effector cells [2] = conditions: cited from earlier work
mouse models of RA = conditions: doses one tenth of the maximum tolerated dose (MTD); cited from earlier work
[3] = system: mouse models of multiple sclerosis and SLE; conditions: in vivo; cited from earlier work
[4] = system: NZB/WF1 mice with established nephritis; experiment: NZB/W F1 mouse model of established nephritis: proteinuria (urine dipsticks) and survival; format: in vivo; conditions: 2.5 mg/kg KZR-616 SC QW, 30 mg/kg QDx7 PO MMF, in comparison with the untreated mice
Experimental: NZB/W Fl mice were purchased from Jackson Laboratories. All mice were housed in the animal facility at Kezar Life Sciences. All experiment protocols were reviewed and approved by the Kezar Committee on Animal Resources. NZB/WF1 mice with established nephritis (24 weeks of age with duratble proteinuria ≥1+ proteinuria) were treated with vehicle alone, 2.5 mg/kg KZR-616 SC QW, 30 mg/kg QDx7 PO MMF or the combination of 2.5 mg/kg KZR-616 SC QW KZR-616 and 30 mg/kg QDx7 PO MMF. Proteinuria was monitored weekly once with urine dipsticks (Uristix by Bayer) and survival was observed.
To investigate immunoproteasome inhibition combined with the standard of care treatment MMF, NZB/w mice were administered vehicle alone, 2.5 mg/kg KZR-616 SC QW, 30 mg/kg QDx7 PO MMF or the combination of KZR-616 and MMF.

immunoproteasome [5] = molecular target: T1, immunoproteasome (Homo sapiens, UniProt P28062+P28065+P40306); experiment: Immunoproteasome inhibition in human cells in vitro; format: cell-based
T1 construct: endogenous in cells

immunoproteasome [6] = molecular target: T2, immunoproteasome (Rattus norvegicus, UniProt P28064+P28077+Q4KM35); experiment: Immunoproteasome inhibition in blood and tissues after administration to rats; format: in vivo; conditions: administered to rats
T2 construct: from tissue; host or cells: blood and tissues of dosed rats

immunoproteasome [7] = experiment: Immunoproteasome inhibition in blood and tissues after administration to monkeys; format: in vivo; conditions: administered to monkeys
non-proteasomal targets = experiment: Broad diversity panel of biochemical assays (110 receptor/ligand and enzyme assays)
[8] = molecular target: LMP7 subunit of the immunoproteasome (Homo sapiens, UniProt P28062); experiment: In vitro inhibition of immunoproteasome subunits; format: biochemical
immune cell types = experiment: In vitro immune cell function (cytokine production, T-cell subsets, plasma cells, autoantibodies); format: cell-based
immune effector cells [9] = conditions: cited from earlier work; remark: listed apart in the source
[10] = system: animal models of autoimmune disorders; conditions: animal models including RA and SLE; cited from earlier work
[11] = system: patients with refractory SLE and LN; conditions: patients who had failed standard immunosuppressive therapies; cited from earlier work
[12] = in vivo; cited from earlier work

COc1ccc(C[C@H](NC(=O)[C@H](C)NC(=O)CN2CCOCC2)C(=O)N[C@@H](Cc2ccccc2)C(=O)[C@]2(C)CO2)cc1 [ONX 0914]
inhibition of the immunoproteasome (immunoproteasome [1]): selectively inhibits the immunoproteasome
autoantibody formation (immune effector cells [2]): blocked autoantibody formation
number and activity of inflammatory T-cell subsets such as Th1 and Th17 (immune effector cells [2]): reduced the number and activity of inflammatory T-cell subsets
number of regulatory T-cells (Treg) (immune effector cells [2]): increased the number of regulatory T-cells
cytokine production (immune effector cells [2]; immune effector cells): inhibited cytokine production in immune effector cells
joint inflammation, cytokine production and joint damage (mouse models of RA): prevent joint-specific inflammation, reduce cytokine production, and ameliorate joint damage
activity and tolerability compared with bortezomib [3]: equivalent activity but better tolerability than bortezomib
therapeutic activity [3]: therapeutically active

COc1ccc([C@@H](O)[C@H](NC(=O)[C@H](C)NC(=O)CN2CCOCC2)C(=O)N[C@@H](CC2=CCCC2)C(=O)[C@@]2(C)CO2)cc1 [KZR-616]
level of proteinuria [4]: significantly reduced the level of proteinuria
survival [4]: increased survival
inhibition of the immunoproteasome (immunoproteasome [5]): potent and selective inhibition of the immunoproteasome
inhibition of the immunoproteasome in blood and tissues (immunoproteasome [6]): potent and selective inhibition in blood and tissues
inhibition of the immunoproteasome in blood and tissues (immunoproteasome [7]): potent and selective inhibition in blood and tissues
inhibition of non-proteasomal targets (non-proteasomal targets): did not inhibit any non-proteasomal targets
mechanism of inhibition of immunoproteasome subunits [8]: irreversible mechanism
inhibition of the LMP7 subunit ([8]; in vitro, selectivity relative to(35)): potent and selective inhibition
activity of inflammatory T-helper cell subsets (immune cell types): reduces the activity of inflammatory T-helper cell subsets
number of regulatory T-cells (immune cell types): increases the number of regulatory T-cells
plasma cell formation and autoantibody production (immune cell types): blocks plasma cell formation and autoantibody production
cytokine production (immune cell types; multiple immune cell types): blocks cytokine production across multiple immune cell types

CC(C)C[C@H](NC(=O)[C@H](Cc1ccccc1)NC(=O)c1cnccn1)B(O)O [bortezomib]
cytokine release (immune effector cells [9]): blocks cytokine release from immune effector cells
anti-inflammatory activity [10]: demonstrated anti-inflammatory activity
clinical activity [11]: shown to have clinical activity
peripheral neuropathy [12]: dose limiting side effect of peripheral neuropathy

COc1c(C)c2c(c(O)c1C/C=C(\C)CCC(=O)OCCN1CCOCC1)C(=O)OC2 [MMF, mycophenolate mofetil]
level of proteinuria [4]: significantly reduced the level of proteinuria
survival [4]: increased survival

CC(C)C[C@H](NC(=O)[C@H](CCc1ccccc1)NC(=O)CN1CCOCC1)C(=O)N[C@@H](Cc1ccccc1)C(=O)N[C@@H](CC(C)C)C(=O)[C@@]1(C)CO1 [carfilzomib]
peripheral neuropathy [12]: Peripheral neuropathy is not induced
